What was measured:
MOLT-4 = test: cells; conditions: Homo sapiens, MOLT-4, 72 h
Description: Antiproliferative activity against human MOLT4 cells after 72 hrs by ViaLight assay

MDA-MB-468 = test: cells; conditions: Homo sapiens, MDA-MB-468, 72 h
Description: Antiproliferative activity against human MDA-MB-468 cells after 72 hrs by ViaLight assay

UACC-62 = test: cells; conditions: Homo sapiens, UACC-62, 72 h
Description: Antiproliferative activity against human UACC62 cells after 72 hrs by ViaLight assay

A549 = test: cells; conditions: Homo sapiens, A549, 72 h
Description: Antiproliferative activity against human A549 cells after 72 hrs by ViaLight assay

Raji = test: Antiproliferative activity against human Raji cells after 72 hrs by ViaLight assay; format: functional, cell-based
cells = conditions: Homo sapiens, Hs-578T, 72 h
Description: Antiproliferative activity against human Hs 578T cells after 72 hrs by ViaLight assay

UO-31 = test: cells; conditions: Homo sapiens, UO-31, 72 h
Description: Antiproliferative activity against human UO31 cells after 72 hrs by ViaLight assay

K562 = test: cells; conditions: Homo sapiens, K562, 72 h
Description: Antiproliferative activity against human K562 cells after 72 hrs by ViaLight assay

KM12 = test: cells; conditions: Homo sapiens, KM12, 72 h
Description: Antiproliferative activity against human KM12 cells after 72 hrs by ViaLight assay

NCI-H322M = test: cells; conditions: Homo sapiens, 72 h
Description: Antiproliferative activity against human NCI-H322M cells after 72 hrs by ViaLight assay

HOP-92 = test: cells; conditions: Homo sapiens, HOP-92, 72 h
Description: Antiproliferative activity against human HOP92 cells after 72 hrs by ViaLight assay

U-251 = test: cells; conditions: Homo sapiens, U-251, 72 h
Description: Antiproliferative activity against human U251 cells after 72 hrs by ViaLight assay

NCI-H522 = test: cells; conditions: Homo sapiens, NCI-H522, 72 h
Description: Antiproliferative activity against human NCI-H522 cells after 72 hrs by ViaLight assay

SF-268 = test: cells; conditions: Homo sapiens, SF-268, 72 h
Description: Antiproliferative activity against human SF268 cells after 72 hrs by ViaLight assay

Malme-3M = test: cells; conditions: Homo sapiens, 72 h
Description: Antiproliferative activity against human MALME-3M cells after 72 hrs by ViaLight assay

MDA-MB-435 = test: cells; conditions: Homo sapiens, MDA-MB-435, 72 h
Description: Antiproliferative activity against human MDA-MB-435 cells after 72 hrs by ViaLight assay

MDA-MB-231 = test: cells; conditions: Homo sapiens, MDA-MB-231, 72 h
Description: Antiproliferative activity against human MDA-MB-231 cells after 72 hrs by ViaLight assay

[1] = target: Cyclin-dependent kinase 7/ cyclin H (Homo sapiens, UniProt P50613); test: Inhibition of human recombinant CDK7/cyclin H expressed in baculovirus-infected insect cells
Chain of Cyclin-dependent kinase 7/ cyclin H (P51946 whole entry): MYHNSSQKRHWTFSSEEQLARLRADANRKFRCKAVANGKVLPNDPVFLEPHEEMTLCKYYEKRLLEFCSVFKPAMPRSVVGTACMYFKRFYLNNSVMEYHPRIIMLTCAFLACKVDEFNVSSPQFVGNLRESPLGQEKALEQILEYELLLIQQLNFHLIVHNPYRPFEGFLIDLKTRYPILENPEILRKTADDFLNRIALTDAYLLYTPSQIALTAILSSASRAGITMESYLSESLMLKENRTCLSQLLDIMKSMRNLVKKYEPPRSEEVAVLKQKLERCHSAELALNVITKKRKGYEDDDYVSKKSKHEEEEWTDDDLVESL
Chain of Cyclin-dependent kinase 7/ cyclin H (P50613 whole entry): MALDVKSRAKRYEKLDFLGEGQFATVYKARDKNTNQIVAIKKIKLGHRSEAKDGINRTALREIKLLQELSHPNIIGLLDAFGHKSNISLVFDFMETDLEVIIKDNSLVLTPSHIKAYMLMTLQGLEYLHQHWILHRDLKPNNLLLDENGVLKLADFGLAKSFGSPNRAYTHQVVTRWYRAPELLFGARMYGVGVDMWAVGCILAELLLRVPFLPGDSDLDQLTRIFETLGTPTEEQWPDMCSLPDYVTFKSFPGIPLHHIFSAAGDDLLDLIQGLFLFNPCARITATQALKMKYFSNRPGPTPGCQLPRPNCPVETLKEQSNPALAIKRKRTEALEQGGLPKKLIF

HeLa = test: Antiproliferative activity against human HeLa cells after 72 hrs by ViaLight assay; format: functional, cell-based
SK-OV-3 = test: cells; conditions: Homo sapiens, SK-OV-3, 72 h
Description: Antiproliferative activity against human SKOV3 cells after 72 hrs by ViaLight assay

HT-29 = test: cells; conditions: Homo sapiens, HT-29, 72 h
Description: Antiproliferative activity against human HT29 cells after 72 hrs by ViaLight assay

MCF7 = test: cells; conditions: Homo sapiens, MCF7, 72 h
Description: Antiproliferative activity against human MCF7 cells after 72 hrs by ViaLight assay

[2] = Inhibition of starfish oocytes CDK1/cyclin B; set-up: species or system Marthasterias glacialis; conditions: oocyte
HCT-116 = test: cells; conditions: Homo sapiens, HCT-116, 72 h
Description: Antiproliferative activity against human HCT116 cells after 72 hrs by ViaLight assay

NCI/ADR-RES = test: cells; conditions: Homo sapiens, 72 h
Description: Antiproliferative activity against human NCI/ADR-RES cells after 72 hrs by ViaLight assay

HEK-293T = test: Antiproliferative activity against human 293T cells after 72 hrs by ViaLight assay; format: functional, cell-based
UACC-257 = test: Antiproliferative activity against human UACC257 cells after 72 hrs by ViaLight assay; format: functional; conditions: UACC-257, 72 h
SF-295 = test: cells; conditions: Homo sapiens, SF-295, 72 h
Description: Antiproliferative activity against human SF295 cells after 72 hrs by ViaLight assay

IGROV-1 = test: cells; conditions: Homo sapiens, IGROV-1, 72 h
Description: Antiproliferative activity against human IGROV1 cells after 72 hrs by ViaLight assay

PC-3 = test: cells; conditions: Homo sapiens, PC-3, 72 h
Description: Antiproliferative activity against human PC3 cells after 72 hrs by ViaLight assay

OVCAR-3 = test: cells; conditions: Homo sapiens, OVCAR-3, 72 h
Description: Antiproliferative activity against human OVCAR-3 cells after 72 hrs by ViaLight assay

SMILES: CC[C@H](CO)Nc1nc(NCc2ccccc2)n2ncc(C(C)C)c2n1
- GI50 (MOLT-4): 2.18 µM
- TGI (MOLT-4): 9.45 µM
- CC50 (MOLT-4; read-out: LC50): > 100 µM
- GI50 (MOLT-4; read-out: pGI50 (converted)): 2.19 µM
- CC50 (MOLT-4; read-out: pLC50 (converted)): 100 µM
- TGI (MOLT-4; read-out: pTGI): 9.55 µM
- GI50 (MDA-MB-468): 1.88 µM
- TGI (MDA-MB-468): 5.19 µM
- CC50 (MDA-MB-468; read-out: LC50): 63.5 µM
- GI50 (MDA-MB-468; read-out: pGI50 (converted)): 1.86 µM
- CC50 (MDA-MB-468; read-out: pLC50 (converted)): 63.1 µM
- TGI (MDA-MB-468; read-out: pTGI): 5.25 µM
- GI50 (UACC-62): 1.37 µM
- TGI (UACC-62): 5.5 µM
- CC50 (UACC-62; read-out: LC50): 31.1 µM
- GI50 (UACC-62; read-out: pGI50 (converted)): 1.38 µM
- CC50 (UACC-62; read-out: pLC50 (converted)): 30.9 µM
- TGI (UACC-62; read-out: pTGI): 5.5 µM
- GI50 (A549): 1.58 µM
- TGI (A549): 41.4 µM
- CC50 (A549; read-out: LC50): > 100 µM
- GI50 (A549; read-out: pGI50 (converted)): 2.51 µM
- CC50 (A549; read-out: pLC50 (converted)): 100 µM
- TGI (A549; read-out: pTGI): 41.7 µM
- Activity (Raji): Dose-dependent effect
- GI50 (cells): 1.59 µM
- TGI (cells): 6.16 µM
- CC50 (cells; read-out: LC50): > 100 µM
- GI50 (cells; read-out: pGI50 (converted)): 1.58 µM
- CC50 (cells; read-out: pLC50 (converted)): 100 µM
- TGI (cells; read-out: pTGI): 6.17 µM
- GI50 (UO-31): 1.59 µM
- TGI (UO-31): > 100 µM
- GI50 (UO-31; read-out: pGI50 (converted)): 1.58 µM
- TGI (UO-31; read-out: pTGI): 100 µM
- GI50 (K562): 2.44 µM
- TGI (K562): 7.38 µM
- CC50 (K562; read-out: LC50): > 100 µM
- GI50 (K562; read-out: pGI50 (converted)): 2.45 µM
- CC50 (K562; read-out: pLC50 (converted)): 100 µM
- TGI (K562; read-out: pTGI): 7.41 µM
- GI50 (KM12): 0.71 µM
- TGI (KM12): 2.79 µM
- CC50 (KM12; read-out: LC50): 9.3 µM
- GI50 (KM12; read-out: pGI50 (converted)): 0.708 µM
- CC50 (KM12; read-out: pLC50 (converted)): 9.77 µM
- TGI (KM12; read-out: pTGI): 2.82 µM
- GI50 (NCI-H322M): 1.86 µM
- TGI (NCI-H322M): 8.92 µM
- CC50 (NCI-H322M; read-out: LC50): > 100 µM
- GI50 (NCI-H322M; read-out: pGI50 (converted)): 1.86 µM
- CC50 (NCI-H322M; read-out: pLC50 (converted)): 100 µM
- TGI (NCI-H322M; read-out: pTGI): 8.91 µM
- GI50 (HOP-92): 1.67 µM
- TGI (HOP-92): 7.1 µM
- CC50 (HOP-92; read-out: LC50): > 100 µM
- GI50 (HOP-92; read-out: pGI50 (converted)): 1.66 µM
- CC50 (HOP-92; read-out: pLC50 (converted)): 100 µM
- TGI (HOP-92; read-out: pTGI): 7.08 µM
- GI50 (U-251): 1.4 µM
- TGI (U-251): 10.5 µM
- CC50 (U-251; read-out: LC50): > 100 µM
- GI50 (U-251; read-out: pGI50 (converted)): 1.41 µM
- CC50 (U-251; read-out: pLC50 (converted)): 100 µM
- TGI (U-251; read-out: pTGI): 10.5 µM
- GI50 (NCI-H522): 1.46 µM
- TGI (NCI-H522): 8.98 µM
- CC50 (NCI-H522; read-out: LC50): > 100 µM
- GI50 (NCI-H522; read-out: pGI50 (converted)): 1.45 µM
- CC50 (NCI-H522; read-out: pLC50 (converted)): 100 µM
- TGI (NCI-H522; read-out: pTGI): 8.91 µM
- GI50 (SF-268): 1.82 µM
- TGI (SF-268): 7.2 µM
- CC50 (SF-268; read-out: LC50): > 100 µM
- GI50 (SF-268; read-out: pGI50 (converted)): 1.82 µM
- CC50 (SF-268; read-out: pLC50 (converted)): 100 µM
- TGI (SF-268; read-out: pTGI): 7.24 µM
- GI50 (Malme-3M): 2.6 µM
- TGI (Malme-3M): 6.99 µM
- CC50 (Malme-3M; read-out: LC50): 43.5 µM
- GI50 (Malme-3M; read-out: pGI50 (converted)): 2.63 µM
- CC50 (Malme-3M; read-out: pLC50 (converted)): 43.7 µM
- TGI (Malme-3M; read-out: pTGI): 6.92 µM
- GI50 (MDA-MB-435): 2.06 µM
- TGI (MDA-MB-435): 10.1 µM
- CC50 (MDA-MB-435; read-out: LC50): 41.4 µM
- GI50 (MDA-MB-435; read-out: pGI50 (converted)): 2.09 µM
- CC50 (MDA-MB-435; read-out: pLC50 (converted)): 41.7 µM
- TGI (MDA-MB-435; read-out: pTGI): 10 µM
- GI50 (MDA-MB-231): 2.37 µM
- TGI (MDA-MB-231): 9.47 µM
- CC50 (MDA-MB-231; read-out: LC50): > 100 µM
- GI50 (MDA-MB-231; read-out: pGI50 (converted)): 2.4 µM
- CC50 (MDA-MB-231; read-out: pLC50 (converted)): 100 µM
- TGI (MDA-MB-231; read-out: pTGI): 9.55 µM
- IC50 [1]: 0.5 µM
- Activity (HeLa): Dose-dependent effect
- GI50 (SK-OV-3): 5.55 µM
- TGI (SK-OV-3): 40.2 µM
- CC50 (SK-OV-3; read-out: LC50): > 100 µM
- GI50 (SK-OV-3; read-out: pGI50 (converted)): 5.5 µM
- CC50 (SK-OV-3; read-out: pLC50 (converted)): 100 µM
- TGI (SK-OV-3; read-out: pTGI): 39.8 µM
- GI50 (HT-29): 2 µM
- TGI (HT-29): 15.5 µM
- CC50 (HT-29; read-out: LC50): > 100 µM
- GI50 (HT-29; read-out: pGI50 (converted)): 2 µM
- CC50 (HT-29; read-out: pLC50 (converted)): 100 µM
- TGI (HT-29; read-out: pTGI): 15.5 µM
- GI50 (MCF7): 0.59 µM
- TGI (MCF7): 7.99 µM
- CC50 (MCF7; read-out: LC50): > 100 µM
- GI50 (MCF7; read-out: pGI50 (converted)): 0.589 µM
- CC50 (MCF7; read-out: pLC50 (converted)): 100 µM
- TGI (MCF7; read-out: pTGI): 7.94 µM
- IC50 [2]: 0.073 µM
- GI50 (HCT-116): 0.51 µM
- TGI (HCT-116): 15 µM
- CC50 (HCT-116; read-out: LC50): > 100 µM
- GI50 (HCT-116; read-out: pGI50 (converted)): 0.513 µM
- CC50 (HCT-116; read-out: pLC50 (converted)): 100 µM
- TGI (HCT-116; read-out: pTGI): 15.1 µM
- GI50 (NCI/ADR-RES): 2.08 µM
- TGI (NCI/ADR-RES): 15.7 µM
- CC50 (NCI/ADR-RES; read-out: LC50): > 100 µM
- GI50 (NCI/ADR-RES; read-out: pGI50 (converted)): 2.09 µM
- CC50 (NCI/ADR-RES; read-out: pLC50 (converted)): 100 µM
- TGI (NCI/ADR-RES; read-out: pTGI): 15.8 µM
- Activity (HEK-293T): Dose-dependent effect
- GI50 (UACC-257; read-out: GI50): 3.56 µM
- CC50 (UACC-257; read-out: LC50 (the source's name)): > 100 µM
- TGI (UACC-257; read-out: TGI): 15 µM
- GI50 (UACC-257; read-out: pGI50 (converted)): 3.24 µM
- CC50 (UACC-257; read-out: pLC50 (the source's name) (converted)): 100 µM
- TGI (UACC-257; read-out: pTGI (converted)): 24 µM
- GI50 (SF-295): 0.81 µM
- TGI (SF-295): 4.74 µM
- GI50 (SF-295; read-out: pGI50 (converted)): 0.813 µM
- TGI (SF-295; read-out: pTGI): 4.79 µM
- GI50 (IGROV-1): 0.78 µM
- TGI (IGROV-1): > 100 µM
- CC50 (IGROV-1; read-out: LC50): > 100 µM
- GI50 (IGROV-1; read-out: pGI50 (converted)): 0.776 µM
- CC50 (IGROV-1; read-out: pLC50 (converted)): 100 µM
- TGI (IGROV-1; read-out: pTGI): 100 µM
- GI50 (PC-3): 0.93 µM
- TGI (PC-3): 12.3 µM
- CC50 (PC-3; read-out: LC50): > 100 µM
- GI50 (PC-3; read-out: pGI50 (converted)): 0.117 µM
- CC50 (PC-3; read-out: pLC50 (converted)): 100 µM
- TGI (PC-3; read-out: pTGI): 0.123 µM
- GI50 (OVCAR-3): 1.15 µM
- TGI (OVCAR-3): 4.6 µM
- CC50 (OVCAR-3; read-out: LC50): 42.4 µM
- GI50 (OVCAR-3; read-out: pGI50 (converted)): 1.45 µM
- CC50 (OVCAR-3; read-out: pLC50 (converted)): 42.7 µM
- TGI (OVCAR-3; read-out: pTGI): 4.57 µM
